From article doi:10.1101/2024.07.10.602890, “H105A peptide eye drops promote photoreceptor survival in murine and human models of retinal degeneration” (bioRxiv, 2024) come the findings set out here.

The test system of assay [1] is rd10 and rd10/Serpinf1−/− mice. Briefly: BAX and BCL2 immunofluorescence of retinal sections after peptide eye drops. The following applies: eye drops 1 mg/ml, vs vehicle, five retinas per group. The assay is classed as in vivo, mouse. The method, then: Fig. 3: Eyedrops of 17-mer and H105A peptides decreased the BAX/BCL2 ratio in photoreceptors of rd10 and rd10/Serpinf1−/− mice (A and B) Immunostaining of retinas. Representative fluorescent micrographs of retinas from rd10 (A) and rd10/Serpinf1^−/− (B) mice treated with 17-mer or H105A peptides at 1 mg/ml via eye drops, along with vehicle-treated controls. Immunostaining was performed with antibodies against BAX or BCL2 (green), and DAPI (blue). Histograms show quantification of immunofluorescence intensity for BAX and BCL2 markers. […] Each individual data point represents the average of one retina, with statistical significance determined by unpaired t-test (***p < 0.0001, ****p < 0.00001). Scale bar = 40 μm.
Both eyes were oriented before enucleation to allow sectioning along the dorsal/ventral axis. Enucleated eyes from rd10 and rd10 × Serpinf1^−/− mice were incised in the cornea and fixed in 2.5% glutaraldehyde for 20 min and then in 10% neutral buffered formalin at 4°C for at least 48 h, followed by paraffin embedding, sectioning, and staining with either H&E or immunofluorescence procedures, as previously described ([28]). For fluorescence microscopy, antibodies, and 0.1 μg/ml DAPI were used to immunostain and nuclei counterstain the sections, respectively. Antibodies used in the study are in Table S3. Images were acquired using a ZEIS 700 confocal microscope. Fluorescence intensity was quantified using ImageJ as previously described ([14], [26]).

The target of assay [2] is T1, recombinant human PEDF-R[1–288] (Homo sapiens, UniProt Q96AD5).
T1 construct: SUMOstar (N); His tag (implied by HisTrap purification; part of the pE-SUMOstar vector) (N); TwinStrep (C); made in house; host or cells: Escherichia coli Rosetta(DE3), co-transformed with pGro7 (groES-groEL)
T1 sequence (Q96AD5 1-288): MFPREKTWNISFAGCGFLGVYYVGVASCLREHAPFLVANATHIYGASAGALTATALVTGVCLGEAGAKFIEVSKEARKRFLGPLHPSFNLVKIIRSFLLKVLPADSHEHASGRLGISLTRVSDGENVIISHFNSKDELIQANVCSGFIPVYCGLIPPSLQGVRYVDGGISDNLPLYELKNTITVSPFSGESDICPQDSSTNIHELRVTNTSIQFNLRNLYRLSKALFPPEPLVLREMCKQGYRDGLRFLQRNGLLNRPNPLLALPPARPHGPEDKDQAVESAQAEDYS
Put plainly: Phospholipase A2 (PLA2) activity assay of PEDF-R with peptides. In kind it is biochemical. The following applies: purified recombinant PEDF-R[1–288] 60 nM; peptides preincubated 30 min at room temperature; EnzChek PLA2 kit; six replicate reactions. The source says: Fig. 1: Penetration and Bioavailability of PEDF Peptides 17-mer, H105A, and R99A Delivered via Eye Drops in Mouse Retinas (A) Peptide mapping and sequence. Tertiary structure of human PEDF highlighting the small peptide region with neurotrophic activity (17-mer) in blue (top). Primary structure of human PEDF showing the location of the 17-mer region (middle). Sequences of the 17-mer peptide and its variants, H105A and R99A (bottom). (B) In vivo detection of peptides. Fundus micrographs showing fluorescence from Alexa Fluor 488-labeled 17-mer, H105A, and R99A peptides in the eyes of C57Bl/6J mice at P21 days after eye drop administration of 5 μl of peptide at 1 mg/ml (left). […] Quantification of fluorescence intensity over time post-administration (right). […] (C) Quantification of peptide in retinas. […] The amount of peptide was quantified from the fluorescence in retinal extracts using standard curves (Fig. S6A). […] (D) Retinal cross-sections showing fluorescence distribution in the photoreceptor layer 1 hour after applying eye drops as in Panel B. Representative images for labeled 17-mer, H105A, and R99A peptides are shown, with magnified areas of 17-mer and H105A indicated by dotted rectangles. […] (F) Effects of 17-mer, H105A, and R99A peptides on the PLA2 activity of PEDF-R. Peptides were preincubated with recombinant human PEDF-R[1–288] for 30 min, and PLA2 activity was measured. […]

Ends that are not written are not given here.

Regarding QRTESIIHRALYYDLIS [17-mer], in assay [1], the “BAX level in photoreceptors (immunofluorescence)” value is recorded as “significantly decreased” and the “BCL2 level in photoreceptors (immunofluorescence)” value is “increased”. In addition, in assay [2], the “stimulation of PLA2 activity of PEDF-R” value is “capable of stimulating its PLA2 activity”.

For the sequence QRTESIIARALYYDLIS [H105A], in assay [1], the “BAX level in photoreceptors (immunofluorescence)” value is reported as “significantly decreased” and the “BCL2 level in photoreceptors (immunofluorescence)” value was “increased”. For the same sequence, in assay [2], the “stimulation of PLA2 activity of PEDF-R” value is recorded as “capable of stimulating its PLA2 activity”.
